Experimental findings from patent US6569902B2, “Nitrone inhibition of cancer development” (Oklahoma Medical Research Foundation, priority 2000, dated 2003) are described below.

Assay [1] relates to GST-P-positive lesions in livers of male Wistar rats fed the CDAA diet. In words: Example 2: numbers and sizes of GST-P-positive liver lesions, CDAA diet for 16 weeks. The format is in vivo, rat. To be noted: high dose 0.090% in CDAA diet. Here is the method: Animals. A total of 110 male Wistar rats were obtained at 5 weeks of age from Charles River Japan, Inc., Atsugi, Kanagawa, Japan. Experimentation began after a 1-week acclimation on a basal diet (CE-2 diet, Clea Japan, Meguro, Tokyo, Japan). Rats were housed 5 each in plastic cages with white flake bedding (Kansai Animal Corp., City of Kyoto, Kyoto, Japan) in a standard atmosphere (temperature, 25±3° C.; relative humidity, 55±8%; ventilation, 10-15/hour; and a 12-hour dark/light cycle). Free access to food and tap water was allowed throughout the acclimation and experimental periods.
Diets and chemicals. The CDAA diet and its control, a choline-supplemented, L-amino acid-defined (CSAA) diet (Nakae et al. 1992; and Nakae et al. 1990) were obtained from Dyets, Inc., Bethlehem, Pa. […] 2-Sulfoxy-PBN (2-SPBN) was purchased from Aldrich Chemical Co. (Milwaukee, Wis.).
(§1) Animal experiment. After acclimation, rats were divided equally into 22 groups consisting of 5 animals each. Animals in group 1 received the CDAA diet alone. […] Groups 5-7, 8-10, 11-13 and 14-16 received the CDAA diet containing the low, middle, and high doses of 4-OHPBN, 3-OHPBN, 2-OHPBN and 2-SPBN, respectively. Group 17 received the CSAA diet alone. […] All animals were sacrificed by exsanguination under light ether anesthesia 16 weeks after commencement, and the livers excised. Slices 5-mm-thick were taken from the left lateral, median and right lateral lobes of the livers, fixed in 10% neutrally-buffered formalin for 24 hours and then embedded in paraffin. Five serial 4-μm-thick sections were prepared from each fixed liver slice and used for histological and immunohistochemical assessment as described below. The remaining portions of the livers were immediately frozen under liquid nitrogen and stored at −80° C. until use.
Histological and immunohistochemical assessments. Histological assessment was performed using sections routinely stained with hematoxylin/eosin and Masson's trichrome procedures. Gradation of fibrosis was quantitatively evaluated in groups 1, 4, 7, 10, 13, 16 and 17 by calculating the percent area occupied by collagen fiber stained blue by Masson's trichrome method using an IPAP image analyzing system (Sumika Technoservice Corp., City of Osaka, Osaka, Japan). GST-P-positive lesions were visualized immunohistochemically. Lesions consisting of more than 6 cells were quantified using the IPAP system as described elsewhere (Kishida et al. 2000). The amount of apoptosis and the cellular proliferative activity were determined in groups 1, 4, 7, 10, 13, 16 and 17, using the double staining techniques by combination of the GST-P immunohistochemistry as above with the in situ terminal deoxynucleotidyl transferase-mediated dUTP-biotin nick end-labeling method (Gold et al. 1994) and the enhanced polymer one-step staining method for proliferating cell nuclear antigen (Tsutsumi et al. 1995), respectively. Numbers of apoptotic and proliferating hepatocytes among the 1000-5000 hepatocytes in GST-P-positive lesions and 5000 hepatocytes in surrounding tissue were counted under light microscopy to obtain percentages that are hereafter referred as apoptotic and proliferative indices, respectively.
(§2) Statistics. Inter-group differences in quantitative data for multiple groups were recognized to be significant, when p values smaller than 0.05 were obtained by the Dunnett multiple comparison test employed after one-way analysis of variance to determine the variation among the group means followed by the Bartlett's test to determine the homogeniety of variance.

Assay [2] concerns livers of male Wistar rats fed the CDAA diet. In words: Example 2: oxidative hepatocyte injuries (8-OHdG, TBARS). The format is in vivo, rat.
Text: as §1
Determination of oxidative hepatocyte injuries. Levels of oxidative damage to the hepatocytes were determined on frozen liver samples. Oxidative damage to nuclear DNA was assessed as previously described, using the amount of 8-hydroxydeoxyguanosine (8-OHdG) to 10^6 deoxyguanosine (dG) ratio as a parameter (Nakae et al. 1995). Oxidative injury to extra-nuclear components was assessed as described elsewhere, by determining picomole malondialdehyde equivalent (MDA eq.) levels of 2-thiobarbituric acid-reacting substances (TBARS) per milligram protein (Nakae et al. 1990).
as §2

Each structure is given as a SMILES string.

`CC(C)(C)[N+]([O-])=Cc1ccccc1` [PBN, phenyl N-tert-butyl nitrone]: in assay [1], the “number of GST-P-positive lesions, % of the group 1 value” came out at 52% and the “sizes of GST-P-positive lesions, % of the group 1 value” is 19%. For the same molecule, in assay [2] (all doses, CDAA diet 16 weeks), the “nuclear DNA 8-OHdG content increased by CDAA diet feeding” value is “significantly inhibited”. Besides, in assay [2] (high dose 0.090% only), the “TBARS level enhanced by CDAA feeding” value is recorded as “significantly inhibited”.
